# Patent publication US20170305922A1, “CARM1 INHIBITORS AND USES THEREOF” (Epizyme, Inc., priority 2014, published 2017)
# Target: T1, Human CARM1 (PRMT4) (Homo sapiens, UniProt Q86X55)
# T1 construct: Flag-CARM1-His was eluted with 200 ug/ml FLAG peptide in buffer A; made in house; host or cells: HEK 293F cells infected with recombinant baculovirus (pFastBacMam)
# T1 sequence (Q86X55 1-585 isoform Q86X55-1): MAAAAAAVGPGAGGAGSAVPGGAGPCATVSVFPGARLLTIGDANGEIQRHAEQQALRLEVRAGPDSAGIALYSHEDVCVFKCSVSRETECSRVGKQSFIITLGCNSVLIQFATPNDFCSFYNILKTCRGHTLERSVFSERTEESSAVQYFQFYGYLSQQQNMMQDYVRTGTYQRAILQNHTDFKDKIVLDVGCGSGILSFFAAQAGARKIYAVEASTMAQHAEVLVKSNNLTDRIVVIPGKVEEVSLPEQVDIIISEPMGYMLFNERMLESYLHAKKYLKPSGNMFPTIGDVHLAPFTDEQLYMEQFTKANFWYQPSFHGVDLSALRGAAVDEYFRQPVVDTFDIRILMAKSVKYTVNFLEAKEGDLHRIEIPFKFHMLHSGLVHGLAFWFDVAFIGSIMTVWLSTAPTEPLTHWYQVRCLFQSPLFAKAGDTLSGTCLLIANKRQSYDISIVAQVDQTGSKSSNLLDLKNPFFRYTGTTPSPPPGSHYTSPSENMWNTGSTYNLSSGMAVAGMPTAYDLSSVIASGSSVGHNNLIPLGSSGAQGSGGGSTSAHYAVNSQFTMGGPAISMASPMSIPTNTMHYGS
# Assay: CARM1 enzyme assay on peptide substrates (3H-SAM Flashplate)
# Details: Biochemical assay; CARM1 0.25 nM, 3H-SAM 30 nM, peptide 250 nM; read-out: Biochem IC50
# Source text: S-adenosylmethionine (SAM), S-adenosylhomocysteine (SAH), bicine, Tween20, dimethylsulfoxide (DMSO), bovine skin gelatin (BSG), sodium butyrate and Tris(2-carboxyethyl)phosphine hydrochloride solution (TCEP) were purchased from Sigma-Aldrich at the highest level of purity possible. ^3H-SAM was purchase from American Radiolabeled Chemicals with a specific activity of 80 Ci/mmol. 384-well streptavidin Flashplates were purchased from PerkinElmer.
# Peptide representative of human histone H3 residues 16-30 was synthesized with an N-terminal linker-affinity tag motif and a C-terminal amide cap by 21st Century Biochemicals. […] The sequence was Biot-Ahx-[…]-amide and contained a monomethylated arginine at position 26 (SEQ ID NO.:1).
# The gene sequence encoding isoform1 containing a deletion of amino acids 539-561 was amplified subsequently and subcloned into pFastBacMam (Viva Biotech).
# Recombinant baculovirus were generated according to Bac-to-Bac kit instructions (Life Technologies). Protein over-expression was accomplished by infecting exponentially growing HEK 293F cell culture at 1.3×10^6 cell/ml with virus (MOI=10) in the presence of 8 mM sodium butyrate. Infections were carried out at 37° C. for 48 hours, harvested by centrifugation, and stored at −80° C. for purification.
# Column was washed with 500 mM NaCl in buffer A and Flag-CARM1-His was eluted with 200 ug/ml FLAG peptide in buffer A. Pooled fractions were dialyzed in 20 mM Tris, 150 mM NaCl, 5% glycerol and 1 mM DTT, pH 7.8.
# The assays were all performed in a buffer consisting of 20 mM Bicine (pH=7.6), 1 mM TCEP, 0.005% BSG, and 0.002% Tween 20, prepared on the day of use. Compounds in 100% DMSO (1 ul) were spotted into a polypropylene 384-well V-bottom plates (Greiner) using a Platemate Plus outfitted with a 384-channel head (Thermo Scientific). DMSO (1 ul) was added to Columns 11, 12, 23, 24, rows A-H for the maximum signal control and 1 ul of SAH, a known product and inhibitor of CARM1, was added to columns 11, 12, 23, 24, rows I-P for the minimum signal control. A cocktail (40 ul) containing the CARM1 enzyme was added by Multidrop Combi (Thermo-Fisher). The compounds were allowed to incubate with CARM1 for 30 min at room temperature, then a cocktail (10 ul) containing ^3H-SAM and peptide was added to initiate the reaction (final volume=51 ul). The final concentrations of the components were as follows: CARM1 was 0.25 nM, ^3H-SAM was 30 nM, peptide was 250 nM, SAH in the minimum signal control wells was 1 mM, and the DMSO concentration was 2%. The assays were stopped by the addition of non-radiolabeled SAM (10 ul) to a final concentration of 300 uM, which dilutes the ^3H-SAM to a level where its incorporation into the peptide substrate is no longer detectable. 50 ul of the reaction in the 384-well polypropylene plate was then transferred to a 384-well Flashplate and the biotinylated peptides were allowed to bind to the streptavidin surface for at least 1 hour before being washed once with 0.1% Tween20 in a Biotek ELx405 plate washer. The plates were then read in a PerkinElmer TopCount plate reader to measure the quantity of ^3H-labeled peptide bound to the Flashplate surface, measured as disintegrations per minute (dpm) or alternatively, referred to as counts per minute (cpm).
# where dpm=disintegrations per minute, cmpd=signal in assay well, and min and max are the respective minimum and maximum signal controls.
# where top and bottom are the normally allowed to float, but may be fixed at 100 or 0 respectively in a 3-parameter fit. The Hill Coefficient normally allowed to float but may also be fixed at 1 in a 3-parameter fit. Y is the % inhibition and X is the compound concentration.
row,Structure (SMILES),IC50 [nM]
1,CNC[C@@H](O)COc1ccc(Cl)c(-c2nc(-c3c(C)noc3C)c(C)c(N3CC4=C(CN(CC(F)F)C4)C3)n2)c1 [Example 54],4.4
2,CNC[C@@H](O)COc1ccc(F)c(-c2nc(-c3c(C)noc3C)c(C)c(N3CC4(CCC(F)CC4)C3)n2)c1 [Example 56],3.8
3,CNC[C@@H](O)COc1ccc(F)c(-c2nc(-c3c(C)noc3C)c(C)c(N3CC4(CC=CCC4)C3)n2)c1 [Example 57],3.4
4,CNC[C@@H](O)COc1ccc(Cl)c(-c2nc(-c3c(Cl)cnn3C)c(C)c(N3Cc4cccnc4C3)n2)c1 [Example 58],1.4
5,CNC[C@@H](O)COc1cccc(-c2nc(-c3c(C)cnn3C)c(C)c(N3Cc4cccnc4C3)n2)c1 [Example 59],1.8
6,CNC[C@@H](O)COc1cccc(-c2nc(-c3c(C)cnn3C)c(C)c(N3Cc4cncnc4C3)n2)c1 [Example 60],3.9
7,CNC[C@@H](O)COc1ccc(Cl)c(-c2nc(-c3c(C)noc3C)c(C)c(N3CC4(CCN(C(C)=O)C4)C3)n2)c1 [Example 63],11

# Results, then the molecule that gave them:
row,IC50 [nM],Structure (SMILES)
1,5.3,CNC[C@@H](O)COc1ccc(Cl)c(-c2nc(-c3c(C)noc3C)c(C)c(N3C[C@H]4CN(C(=O)OC)C[C@H]4C3)n2)c1 [Example 53]
2,3.6,CNC[C@@H](O)COc1ccc(Cl)c(-c2nc(-c3c(C)noc3C)c(C)c(N3CC4=C(CN(C(=O)OC)C4)C3)n2)c1 [Example 55]
3,13.7,CNC[C@@H](O)COc1cccc(-c2nc(-c3c(C)cnn3C)c(C)c(N3CC4(CCN(C(=O)OC)CC4)C3)n2)c1 [Example 61]
4,64.7,CNC[C@@H](O)COc1ccc(Cl)c(-c2nc(-c3c(C)noc3C)c(C)c(N3CC4(CN(CC(F)F)C4)C3)n2)c1 [Example 62]

# Tested on: asymmetric di-methyl PABP1 in RKO cells
# Assay: RKO methylation assay: In Cell Western (ICW) for asymmetric di-methyl PABP1 (PABP1me2a)
# Details: Homo sapiens, RKO, 48 h, Cellular-based (PABP1me2a) ICW (In Cell Western) assay
# Source text: RKO adherent cells were purchased from ATCC (American Type Culture Collection), Manassas, Va., USA. DMEM/Glutamax medium, penicillin-streptomycin, heat inactivated fetal bovine serum, 0.05% trypsin and D-PBS were purchased from Life Technologies, Grand Island, N.Y., USA. Odyssey blocking buffer, 800CW goat anti-rabbit IgG (H+L) antibody, and Licor Odyssey infrared scanner were purchased from Licor Biosciences, Lincoln, Nebr., USA. Asymmetric di-methyl PABP1 antibody was purchased from Cell Signaling Technology, Danvers, Mass., USA. Methanol was purchased from VWR, Franklin, Mass., USA. 10% Tween 20 was purchased from KPL, Inc., Gaithersburg, Md., USA. Paraformaldehyde (PFA) was purchased from EM Sciences. DRAQ5 was purchased from Biostatus Limited, Leicestershire, UK.
# RKO adherent cells were maintained in growth medium (DMEM/Glutamax medium supplemented with 10% v/v heat inactivated fetal bovine serum and 100 units/mL penicillin-streptomycin) and cultured at 37° C. under 5% CO2.
# Cell treatment, In Cell Western (ICW) for detection of asymmetric di-methyl PABP1 and DNA content: RKO cells were seeded in assay medium at a concentration of 30,000 cells per mL to a poly-D-lysine coated 384 well culture plate (BD Biosciences 356697) with 50 μL per well. Compound (100 nL) from a 96-well source plate was added directly to 384 well cell plate. Plates were incubated at 37° C., 5% CO2 for 48 hours. After two days of incubation, plates were brought to room temperature outside of the incubator for ten minutes and blotted on paper towels to remove cell media. Cells were fixed for 20 minutes at room temperature by adding 50 ul of 8% PFA followed by aspiration of supernatant with the Biotek EL406 plate washer. Cells were then permeabilized by addition of 50 μL of ice cold 100% methanol directly to each well and incubated for 30 min at room temperature. After 30 min, plates were transferred to a Biotek EL406 plate washer and washed 2 times with 100 μL per well of wash buffer (1×PBS). Next 60 μL per well of Odyssey blocking buffer (Odyssey Buffer with 0.1% Tween 20 (v/v)) were added to each plate and incubated 1 hour at room temperature. Blocking buffer was removed and 20 μL per well of primary antibody was added (asymmetric-methyl PABP1) diluted 1:400 in Odyssey buffer with 0.1% Tween 20 (v/v)) and plates were incubated overnight (16 hours) at 4° C. Plates were washed 5 times with 100 μL per well of wash buffer. Next 20 μL per well of secondary antibody was added (1:800 800CW goat anti-rabbit IgG (H+L) antibody, 1:2000 DRAQ5 in Odyssey buffer with 0.1% Tween 20 (v/v)) and incubated for 1 hour at room temperature. The plates were washed 5 times with 100 μL per well wash buffer then 2 times with 100 μL per well of water. Plates were allowed to dry at room temperature then imaged on the Licor Odyssey machine which measures integrated intensity at 700 nm and 800 nm wavelengths. Both 700 and 800 channels were scanned.
# First, the ratio for each well was determined by:
# Each plate included fourteen control wells of DMSO only treatment (minimum inhibition) as well as fourteen control wells for maximum inhibition treated with 20 μM of a reference compound. The average of the ratio values for each control type was calculated and used to determine the percent […] for each test well in the plate. Reference compound was serially diluted three-fold in DMSO for a total of nine test concentrations, beginning at 20 μM.
# Percent inhibition was determined and IC50 curves were generated using triplicate wells per concentration of compound.
row,Structure (SMILES),IC50 [nM]
1,CNC[C@@H](O)COc1ccc(Cl)c(-c2nc(-c3c(C)noc3C)c(C)c(N3CC4=C(CN(CC(F)F)C4)C3)n2)c1 [Example 54],45
2,CNC[C@@H](O)COc1ccc(F)c(-c2nc(-c3c(C)noc3C)c(C)c(N3CC4(CCC(F)CC4)C3)n2)c1 [Example 56],113
3,CNC[C@@H](O)COc1ccc(F)c(-c2nc(-c3c(C)noc3C)c(C)c(N3CC4(CC=CCC4)C3)n2)c1 [Example 57],276
4,CNC[C@@H](O)COc1ccc(Cl)c(-c2nc(-c3c(Cl)cnn3C)c(C)c(N3Cc4cccnc4C3)n2)c1 [Example 58],73
5,CNC[C@@H](O)COc1cccc(-c2nc(-c3c(C)cnn3C)c(C)c(N3Cc4cccnc4C3)n2)c1 [Example 59],292
6,CNC[C@@H](O)COc1cccc(-c2nc(-c3c(C)cnn3C)c(C)c(N3Cc4cncnc4C3)n2)c1 [Example 60],389
7,CNC[C@@H](O)COc1ccc(Cl)c(-c2nc(-c3c(C)noc3C)c(C)c(N3CC4(CCN(C(C)=O)C4)C3)n2)c1 [Example 63],2060

# Other lines, results leading:
row,IC50 [nM],Structure (SMILES)
1,198,CNC[C@@H](O)COc1ccc(Cl)c(-c2nc(-c3c(C)noc3C)c(C)c(N3C[C@H]4CN(C(=O)OC)C[C@H]4C3)n2)c1 [Example 53]
2,13,CNC[C@@H](O)COc1ccc(Cl)c(-c2nc(-c3c(C)noc3C)c(C)c(N3CC4=C(CN(C(=O)OC)C4)C3)n2)c1 [Example 55]
3,874,CNC[C@@H](O)COc1cccc(-c2nc(-c3c(C)cnn3C)c(C)c(N3CC4(CCN(C(=O)OC)CC4)C3)n2)c1 [Example 61]
4,526,CNC[C@@H](O)COc1ccc(Cl)c(-c2nc(-c3c(C)noc3C)c(C)c(N3CC4(CN(CC(F)F)C4)C3)n2)c1 [Example 62]
